This passage reports Emax results from patent US20260256751A1, “COMBINATION OF BETA-2-ADRENERGIC RECEPTOR AGONISTS AND GLP-1 RECEPTOR AGONISTS FOR USE IN TREATING HYPERGLYCAEMIA” (ATROGI AB, priority 2023, published 2026).

In test [1] the test system is differentiated L6-myotubes. Kind of test: Glucose uptake screen (Biological example 1 of WO 2019/053427). In kind it is cell-based. The conditions noted are these: compound at 10 μM, activity relative to isoproterenol at 10 μM, read-out: Biological example 1 of WO 2019/053427 (GU). In short, it runs like this: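 Rat L6 myoblasts were differentiated into myotubes over 7 days in 2% FBS, then serum-starved overnight. Cells were stimulated with 1×10^−5 M compound plus β2 antagonist ICI-118551 for 1 h 40 min and re-dosed for 20 min in glucose-free medium. Uptake of 50 nM ^3H-2-deoxyglucose over 10 min was counted after NaOH lysis.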

Test [2] has as its system differentiated L6-myotubes. Kind of test: cAMP production relative to isoprenaline (Biological example 2 of WO 2019/053427). In kind it is cell-based. The conditions noted are these: 0.25 h, compound at 10 μM, activity relative to isoproterenol at 10 μM. In short, it runs like this: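 Differentiated L6 myotubes stimulated 15 min with test compound or isoprenaline, each at final 1×10^−5 M, in HBSS with 1% BSA, 5 mM HEPES, 1 mM IBMX, pH 7.4. cAMP production by the compound expressed relative to that induced by the same concentration of isoprenaline.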

Molecules are shown by their SMILES. A value given as a limit tells only on which side of the number the result lay.

With `CC(=O)N[C@H]1CC[C@H](C[C@@H]2CC[C@H]([C@@H](O)c3cccc(F)c3)N2)CC1` [Compound 486, N-[(1S,4r)-4-({(2S,5R)-5-[(S)-(m-fluorophenyl)hydroxymethyl]-2-pyrrolidinyl}methyl)cyclohexyl]acetamide], the values for the Emax at 10 µM in test [1] and in test [2] were 50 to 75% and less than 25%, respectively.

As to `O[C@@H](c1cccc(F)c1)C12CCC(COCc3ccc(OC(F)(F)F)cc3)(CC1)N2` [Compound 487, (S)-(m-fluorophenyl)(4-{[(p-trifluoromethoxyphenyl)methoxy]methyl}-7-azabicylco[2.2.1]hept-1-yl)methanol], the Emax at 10 µM in test [1] and in test [2] was less than 25% throughout.

Turning to `O[C@H](c1cccc(F)c1)C12CCC(COCc3ccc(OC(F)(F)F)cc3)(CC1)N2` [Compound 488, (R)-(m-fluorophenyl)(4-{[(p-trifluoromethoxyphenyl)methoxy]methyl}-7-azabicyclo[2.2.1]hept-1-yl)methanol], the Emax at 10 µM in test [1] and in test [2] was less than 25% throughout.

With `O[C@@H](c1cncc(F)c1)C12CCC(COCc3ccc(OC(F)(F)F)cc3)(CC1)N2` [Compound 489, (S)-(5-fluoro-3-pyridyl)(4-{[(p-trifluoromethoxyphenyl)methoxy]methyl}-7-azabicyclo[2.2.1]hept-1-yl)methanol], the Emax at 10 µM in test [1] and in test [2] was less than 25% in each case.

As for `O[C@H](c1cncc(F)c1)C12CCC(COCc3ccc(OC(F)(F)F)cc3)(CC1)N2` [Compound 490, (R)-(5-fluoro-3-pyridyl)(4-{[(p-trifluoromethoxyphenyl)methoxy]methyl}-7-azabicyclo[2.2.1]hept-1-yl)methanol], the Emax at 10 µM in test [1] was 50 to 75%; in test [2] it was less than 25%.

For `CC(=O)N(C)[C@H]1CC[C@H](CC(C)(C)NC[C@H](O)c2cccc(F)c2)CC1` [Compound 491, N-[(1R,4r)-4-{2-[(R)-2-(m-fluorophenyl)-2-hydroxyethylamino]-2-methylpropyl}cyclohexyl]-N-methylacetamide], the Emax at 10 µM in test [1] is more than 75%; in test [2], less than 25%.

For the compound `CC(=O)N(C)[C@H]1CC[C@@H](CC(C)(C)NC[C@H](O)c2cccc(F)c2)CC1` [Compound 492, N-[(1S,4s)-4-{2-[(R)-2-(m-fluorophenyl)-2-hydroxyethylamino]-2-methylpropyl}cyclohexyl]-N-methylacetamide], the Emax at 10 µM in test [1] is 25 to 50%; in test [2], less than 25%.

`CC(C)(C[C@H]1CC[C@@H](NS(=O)(=O)C(F)(F)F)CC1)NC[C@H](O)c1cccc(F)c1` [Compound 493, (R)-2-{1,1-dimethyl-2-[(1s,4S)-4-(trifluoromesylamino)cyclohexyl]ethylamino}-1-(m-fluorophenyl)-1-ethanol]: the Emax at 10 µM is 25 to 50% in test [1] and less than 25% in test [2].

Take `CC(C)(C[C@H]1CC[C@@H](NS(=O)(=O)C2CC2)CC1)NC[C@H](O)c1cccc(F)c1` [Compound 494, (R)-2-{1,1-dimethyl-2-[(1s,4S)-4-(cyclopropylsuflonylamino)cyclohexyl]ethylamino}-1-(m-fluorophenyl)-1-ethanol]: the figures for the Emax at 10 µM in test [1] and in test [2] were 25 to 50% and less than 25%, respectively.

For `CNS(=O)(=O)[C@H]1CC[C@@H](CC(C)(C)NC[C@H](O)c2cncc(F)c2)CC1` [Compound 495, (R)-2-{1,1-dimethyl-2-[(1s,4S)-4-(methylaminosulfonyl)cyclohexyl]ethylamino}-1-(5-fluoro-3-pyridyl)-1-ethanol], the Emax at 10 µM is 50 to 75% in test [1] and less than 25% in test [2].

Take `CC(C)(C[C@H]1CC[C@H](NS(=O)(=O)C2CC2)CC1)NC[C@H](O)c1cccc(F)c1` [Compound 496, (R)-2-{1,1-dimethyl-2-[(1r,4R)-4-(cyclopropylsulfonylamino)cyclohexyl]ethylamino}-1-(m-fluorophenyl)-1-ethanol]: the Emax at 10 µM in test [1] is 50 to 75%; in test [2] it was less than 25%.

Regarding `CCCS(=O)(=O)N[C@H]1CC[C@@H](CC(C)(C)NC[C@H](O)c2cccc(F)c2)CC1` [Compound 497, (R)-2-{1,1-dimethyl-2-[(1s,4S)-4-(propylsulfonylamino)cyclohexyl]ethylamino}-1-(m-fluorophenyl)-1-ethanol], the results for the Emax at 10 µM in test [1] and in test [2] were 50 to 75% and less than 25%, respectively.

Regarding `CN([C@H]1CC[C@@H](CC(C)(C)NC[C@H](O)c2cccc(F)c2)CC1)S(C)(=O)=O` [Compound 498, (R)-2-{1,1-dimethyl-2-[(1s,4S)-4-(N-mesyl-N-methylamino)cyclohexyl]ethylamino}-1-(m-fluorophenyl)-1-ethanol], the Emax at 10 µM in test [1] was 25 to 50%; in test [2] it was less than 25%.

As to `CN([C@H]1CC[C@H](CC(C)(C)NC[C@H](O)c2cccc(F)c2)CC1)S(C)(=O)=O` [Compound 499, (R)-2-{1,1-dimethyl-2-[(1r,4R)-4-(N-mesyl-N-methylamino)cyclohexyl]ethylamino}-1-(m-fluorophenyl)-1-ethanol], the Emax at 10 µM in test [1] was 25 to 50%; in test [2], less than 25%.

As for `O[C@@H](c1cccc(F)c1)C12CCC(Cc3ccc(OC(F)(F)F)cc3)(CC1)N2` [Compound 500], the Emax at 10 µM in test [1] and in test [2] was less than 25% each time.

On to `O[C@H](c1cccc(F)c1)C12CCC(Cc3ccc(OC(F)(F)F)cc3)(CC1)N2` [Compound 501, (R)-(m-fluorophenyl){4-[(p-trifluoromethoxyphenyl)methyl]-7-azabicyclo[2.2.1]hept-1-yl}methanol], for which the Emax at 10 µM in test [1] and in test [2] was less than 25% each time.

As to `CS(=O)(=O)N(Cc1ccccc1)[C@H]1CC[C@H](C[C@@H]2CC[C@H]([C@H](O)c3cccc(F)c3)N2)CC1` [Compound 502, (R)-[(2R,5S)-5-({(1r,4S)-4-[(benzyl)-N-mesylamino]cyclohexyl}methyl)-2-pyrrolidinyl](m-fluorophenyl)methanol], the Emax at 10 µM in test [1] and in test [2] was less than 25% in each case.

For `CS(=O)(=O)N(Cc1ccccc1)[C@H]1CC[C@H](C[C@@H]2CC[C@H]([C@@H](O)c3cccc(F)c3)N2)CC1` [Compound 503, (S)-[(2R,5S)-5-({(1r,4S)-4-[(benzyl)-N-mesylamino]cyclohexyl}methyl)-2-pyrrolidinyl](m-fluorophenyl)methanol], the Emax at 10 µM in test [1] and in test [2] was less than 25% each time.

As for `CS(=O)(=O)N[C@H]1CC[C@H](C[C@@H]2CC[C@H]([C@H](O)c3cccc(F)c3)N2)CC1` [Compound 504, (R)-[(2R,5S)-5-{[(1r,4S)-4-(mesylamino)cyclohexyl]methyl}-2-pyrrolidinyl](m-fluorophenyl)methanol], the Emax at 10 µM in test [1] was 50 to 75%; in test [2], less than 25%.

For `CS(=O)(=O)N[C@H]1CC[C@H](C[C@@H]2CC[C@H]([C@@H](O)c3cccc(F)c3)N2)CC1` [Compound 505, (S)-[(2R,5S)-5-{[(1r,4S)-4-(mesylamino)cyclohexyl]methyl}-2-pyrrolidinyl](m-fluorophenyl)methanol], the Emax at 10 µM in test [1] and in test [2] was less than 25% each time.

For `CC(=O)N(C)[C@H]1CC[C@H](CC(C)(C)NC[C@H](O)c2cncc(F)c2)CC1` [Compound 506, N-[(1R,4r)-4-{2-[(R)-2-(5-fluoro-3-pyridyl)-2-hydroxyethylamino]-2-methylpropyl}cyclohexyl]-N-methylacetamide], the values for the Emax at 10 µM in test [1] and in test [2] were more than 75% and 25 to 50%, respectively.

For `CC(=O)N(C)[C@H]1CC[C@@H](CC(C)(C)NC[C@H](O)c2cncc(F)c2)CC1` [Compound 507, N-[(1S,4s)-4-{2-[(R)-2-(5-fluoro-3-pyridyl)-2-hdyroxyethylamino]-2-methylpropyl}cyclohexyl]-n-methylacetamide], the Emax at 10 µM in test [1] is 50 to 75%; in test [2], less than 25%.

With `CS(=O)(=O)N(Cc1ccccc1)[C@H]1CC[C@@H](C[C@@H]2CC[C@H]([C@H](O)c3cccc(F)c3)N2)CC1` [Compound 508, (R)-[(2R,5S)-5-({(1s,4R)-4-[(benzyl)-N-mesylamino]cyclohexyl}methyl)-2-pyrrolidinyl](m-fluorophenyl)methanol], the Emax at 10 µM in test [1] and in test [2] was less than 25% throughout.

For `CS(=O)(=O)N(Cc1ccccc1)[C@H]1CC[C@@H](C[C@@H]2CC[C@H]([C@@H](O)c3cccc(F)c3)N2)CC1` [Compound 509, (S)-[(2R,5S)-5-({(1s,4R)-4-[(benzyl)-N-mesylamino]cyclohexyl}methyl)-2-pyrrolidinyl](m-fluorophenyl)methanol], the Emax at 10 µM in test [1] and in test [2] was less than 25% each time.

In the case of `CS(=O)(=O)N[C@H]1CC[C@@H](C[C@@H]2CC[C@H]([C@H](O)c3cccc(F)c3)N2)CC1` [Compound 510, (R)-[(2R,5S)-5-{[(1s,4R)-4-(mesylamino)cyclohexyl]methyl}-2-pyrrolidinyl](m-fluorophenyl)methanol], the Emax at 10 µM in test [1] was more than 75%; in test [2] it was less than 25%.

In the case of `CS(=O)(=O)N[C@H]1CC[C@@H](C[C@@H]2CC[C@H]([C@@H](O)c3cccc(F)c3)N2)CC1` [Compound 511, (S)-[(2R,5S)-5-{[(1s,4R)-4-(mesylamino)cyclohexyl]methyl}-2-pyrrolidinyl](m-fluorophenyl)methanol], the Emax at 10 µM in test [1] is 25 to 50%; in test [2], less than 25%.
